Our source for the MIC and hemolysis values is ChEMBL document CHEMBL1140025, “Antimicrobial activity of rationally designed amino terminal modified peptides” (Bioorg Med Chem Lett, 2007).

The subject of one series is Bacillus subtilis. Kind of series: Antibacterial activity against Bacillus subtilis NCIM 2063. It counts as functional.
Another series has as its system Staphylococcus aureus. Kind of series: Antibacterial activity against Staphylococcus aureus MTCCB 96. It is filed as functional.
Series [1] deals with Escherichia coli. Kind of series: Antibacterial activity against Escherichia coli MTCCB 1610. It counts as functional.
In series [2] the test system is Escherichia coli. As to the kind of experiment: Antibacterial activity against Escherichia coli.
For a further series, the system named is Pseudomonas aeruginosa. Kind of series: Antibacterial activity against Pseudomonas aeruginosa MTCCB 741. It is filed as functional.
The nature of series [3]: Toxicity against human red blood cells assessed as lysis upto 1000 ug/mL. It is filed as cell-based, Erythrocyte. As to conditions: read-out: Activity.

≈ marks a conversion by molar mass, not a printed value. Where a SMILES comes first, the peptide text is derived from it. [ ]: non-standard residue; d: D form. The star is where a group is joined. Desaminotyrosyl = O=C(CCc1ccc(O)cc1)*; X1 = O=C(/C=C/c1ccc(O)cc1)*; Orn = NCCC[C@H](N)C(=O)O; X2 = O=C(/C=C/c1ccccc1)*

As to `NCCC[C@H](NC(=O)/C=C/c1ccccc1)C(=O)N[C@@H](CCCN)C(=O)N[C@@H](Cc1c[nH]c2ccccc12)C(=O)N[C@@H](Cc1c[nH]c2ccccc12)C(N)=O` (X2-[Orn][Orn]WW-NH2), the MIC – broadly, the least concentration at which growth counts as inhibited – is 32 µg/mL (≈ 42.8 µM) in the series with Bacillus subtilis; 2 µg/mL (≈ 2.67 µM) against Staphylococcus aureus; 2 µg/mL (≈ 2.67 µM) against Escherichia coli [1]; 4 µg/mL (≈ 5.35 µM) with Escherichia coli [2]; 16 µg/mL (≈ 21.4 µM) in the series on Pseudomonas aeruginosa. Also, the hemolysis in series [3] was 0%.

For the molecule GENTAMICIN, the minimal inhibitory concentration (MIC) came out at 0.03 µg/mL against Bacillus subtilis, 0.062 µg/mL against Staphylococcus aureus, 0.25 µg/mL against Escherichia coli [1] and 1 µg/mL against Pseudomonas aeruginosa.

Consider `NC(=O)[C@H](Cc1c[nH]c2ccccc12)NC(=O)[C@H](Cc1c[nH]c2ccccc12)NC(=O)/C=C/c1ccc(O)cc1`, for which the MIC against Bacillus subtilis was 1 µg/mL (≈ 1.87 µM); against Staphylococcus aureus, 2 µg/mL (≈ 3.73 µM); in the series on Escherichia coli [1], below 512 µg/mL; in the series on Escherichia coli [2], below 512 µg/mL; with Pseudomonas aeruginosa, below 512 µg/mL. The hemolysis in series [3] was found to be 0%.

With `NCCC[C@H](NC(=O)[C@@H](N)CCCN)C(=O)N[C@@H](Cc1c[nH]c2ccccc12)C(=O)N[C@@H](Cc1c[nH]c2ccccc12)C(N)=O` (H-[Orn][Orn]WW-NH2), the minimal inhibitory concentration (MIC) with Bacillus subtilis was determined as 512 µg/mL (≈ 829 µM); in the series with Staphylococcus aureus, 128 µg/mL (≈ 207 µM); against Escherichia coli [1], 512 µg/mL (≈ 829 µM); in the series on Escherichia coli [2] it was 256 µg/mL (≈ 414 µM); in the series on Pseudomonas aeruginosa it was 256 µg/mL (≈ 414 µM). Also, the hemolysis in series [3] was 0%.

On to `CC(=O)N[C@@H](CCCN)C(=O)N[C@@H](CCCN)C(=O)N[C@@H](Cc1c[nH]c2ccccc12)C(=O)N[C@@H](Cc1c[nH]c2ccccc12)C(N)=O` (Ac-[Orn][Orn]WW-NH2), for which the MIC against Bacillus subtilis was 2 µg/mL (≈ 3.03 µM); in the series with Staphylococcus aureus, 2 µg/mL (≈ 3.03 µM); against Escherichia coli [1], 32 µg/mL (≈ 48.5 µM); in the series with Escherichia coli [2] it was 128 µg/mL (≈ 194 µM); in the series with Pseudomonas aeruginosa, 128 µg/mL (≈ 194 µM). Moreover, the hemolysis in series [3] is 0%.

With `NCCC[C@H](NC(=O)/C=C/c1ccc(O)cc1)C(=O)N[C@@H](CCCN)C(=O)N[C@@H](Cc1c[nH]c2ccccc12)C(=O)N[C@@H](Cc1c[nH]c2ccccc12)C(N)=O` (X1-[Orn][Orn]WW-NH2), the MIC against Bacillus subtilis amounted to 1 µg/mL (≈ 1.31 µM); against Staphylococcus aureus it was 2 µg/mL (≈ 2.62 µM); in the series with Escherichia coli [1] it was 16 µg/mL (≈ 20.9 µM); with Escherichia coli [2] it was 8 µg/mL (≈ 10.5 µM); in the series with Pseudomonas aeruginosa, 2 µg/mL (≈ 2.62 µM). In addition, the hemolysis in series [3] was 0%.

In the case of `NCCC[C@H](NC(=O)/C=C/c1ccc(O)cc1)C(=O)N[C@@H](CCCN)C(=O)N[C@@H](Cc1c[nH]c2ccccc12)C(=O)N[C@@H](Cc1c[nH]c2ccccc12)C(=O)O` (X1-[Orn][Orn]WW-OH), the MIC with Bacillus subtilis amounted to 128 µg/mL (≈ 167 µM); with Staphylococcus aureus it was 128 µg/mL (≈ 167 µM); against Escherichia coli [1], 64 µg/mL (≈ 83.7 µM); in the series with Escherichia coli [2], 128 µg/mL (≈ 167 µM); against Pseudomonas aeruginosa it was 64 µg/mL (≈ 83.7 µM). Moreover, in series [3], the hemolysis is 0%.

For the molecule `NCCC[C@H](NC(=O)CCc1ccc(O)cc1)C(=O)N[C@@H](CCCN)C(=O)N[C@@H](Cc1c[nH]c2ccccc12)C(=O)N[C@@H](Cc1c[nH]c2ccccc12)C(N)=O` (Desaminotyrosyl-[Orn][Orn]WW-NH2), the minimal inhibitory concentration (MIC) with Bacillus subtilis was determined as 2 µg/mL (≈ 2.61 µM); in the series on Staphylococcus aureus, 1 µg/mL (≈ 1.31 µM); with Escherichia coli [1], 2 µg/mL (≈ 2.61 µM); in the series on Escherichia coli [2] it was 4 µg/mL (≈ 5.22 µM); with Pseudomonas aeruginosa, 32 µg/mL (≈ 41.8 µM). Also, the hemolysis in series [3] was determined as 0%.

Turning to `CN(C)[C@@H]1C(O)=C(C(N)=O)C(=O)[C@@]2(O)C(O)=C3C(=O)c4c(O)cccc4[C@@](C)(O)[C@H]3C[C@@H]12` [TETRACYCLINE], the minimum inhibitory concentration (MIC) in the series with Bacillus subtilis was determined as 0.125 µg/mL (≈ 0.281 µM); against Staphylococcus aureus, 0.25 µg/mL (≈ 0.563 µM); against Escherichia coli [1], 0.5 µg/mL (≈ 1.13 µM); in the series with Escherichia coli [2], 2 µg/mL (≈ 4.5 µM); against Pseudomonas aeruginosa, 1 µg/mL (≈ 2.25 µM).

For `NCCC[C@H](NC(=O)/C=C/c1ccc(O)cc1)C(=O)N[C@@H](CCCN)C(=O)N[C@@H](Cc1ccccc1)C(=O)N[C@@H](Cc1ccccc1)C(N)=O` (X1-[Orn][Orn]FF-NH2), the MIC in the series with Bacillus subtilis turned out to be 2 µg/mL (≈ 2.92 µM); against Staphylococcus aureus it was 32 µg/mL (≈ 46.7 µM); in the series on Escherichia coli [1], 4 µg/mL (≈ 5.83 µM); in the series on Escherichia coli [2], 8 µg/mL (≈ 11.7 µM); with Pseudomonas aeruginosa it was 2 µg/mL (≈ 2.92 µM). Moreover, in series [3], the hemolysis worked out at 0%.
